In brackets after ≈: the same amount, converted by molar mass.
Key:
[1] = test system: Plasmodium falciparum; test: Antiplasmodial activity against Plasmodium falciparum D6 infected in human RBC assessed as parasite growth inhibition measured as LDH activity after 72 hrs by plate reader analysis; format: functional, organism-based; conditions: Plasmodium falciparum, D6, 72 h
[2] = test system: Plasmodium falciparum; test: Antiplasmodial activity against Plasmodium falciparum W2 infected in human RBC assessed as parasite growth inhibition measured as LDH activity after 72 hrs by plate reader analysis; format: functional, organism-based; conditions: Plasmodium falciparum, W2, 72 h
[3] = test system: LLC-PK1; test: Cytotoxicity against pig LLC-PK1 cells assessed as cell growth inhibition after 48 hrs by neutral red assay; format: cell-based; conditions: Sus scrofa, LLC-PK1, 48 h
[4] = test system: BT-549; test: Cytotoxicity against human BT549 cells assessed as cell growth inhibition after 48 hrs by neutral red assay; format: cell-based; conditions: BT-549, 48 h
[5] = Selectivity index, ratio of IC50 for African green monkey VERO cells to IC50 for Plasmodium falciparum D6
[6] = Selectivity index, ratio of IC50 for African green monkey VERO cells to IC50 for Plasmodium falciparum W2
[7] = test system: SK-MEL; test: Cytotoxicity against human SK-MEL cells assessed as cell growth inhibition after 48 hrs by neutral red assay; format: cell-based
[8] = Retention time of the compound by HPLC analysis; format: physicochemical
[9] = test system: SK-OV-3; test: Cytotoxicity against human SKOV3 cells assessed as cell growth inhibition after 48 hrs by neutral red assay; format: cell-based; conditions: SK-OV-3, 48 h
[10] = test system: KB; test: Cytotoxicity against human KB cells assessed as cell growth inhibition after 48 hrs by neutral red assay; format: cell-based
[11] = Selectivity index, ratio of IC50 for pig LLC-PK1 cells to IC50 for Plasmodium falciparum W2
[12] = Selectivity index, ratio of IC50 for pig LLC-PK1 cells to IC50 for Plasmodium falciparum D6
[13] = test system: Mycobacterium tuberculosis; test: Antitubercular activity against Mycobacterium tuberculosis H37Rv assessed as […] inhibition after 7 days by broth microdilution assay; format: functional; conditions: 168 h
[14] = test system: Vero; test: Cytotoxicity against African green monkey Vero cells assessed as cell growth inhibition after 48 hrs by neutral red assay; format: cell-based; conditions: Chlorocebus sabaeus

SMILES | IC50 ([1]; read-out: IC50) | IC50 ([1]; read-out: pIC50 (converted)) | IC50 ([2]; read-out: IC50) | IC50 ([2]; read-out: pIC50 (converted)) | IC50 [3] | IC50 [4] | Ratio IC50 [5] | Ratio IC50 [6] | IC50 [7] | Retention_time [8] | IC50 [9] | IC50 [10] | Ratio IC50 [11] | Ratio IC50 [12] | MIC90 [13] | IC50 [14]
N#Cc1ccc(S(=O)(=O)n2cc(-c3ccnc(N)n3)c3cc(Br)ccc32)cc1 | 10.3 µM | 10.3 µM | 5.2 µM | 5.2 µM | > 55 µM | > 55 µM | >5.3 | >10.6 | > 55 µM | 7.09 min | > 55 µM | > 55 µM | >10.6 | >5.3 | 70.6 µM (≈ 32.1 µg/mL) | > 55 µM
Nc1nccc(-c2cn(S(=O)(=O)c3ccc(C(F)(F)F)cc3[N+](=O)[O-])c3ccc(Br)cc23)n1 | 2.56 µM | 2.56 µM | 3.41 µM | 3.41 µM | > 46 µM | > 46 µM | >18 | >13.5 | > 46 µM | 8.26 min | > 28 µM | > 46 µM | >13.5 | >18 | 118 µM (≈ 64.2 µg/mL) | > 46 µM

Source: ChEMBL document CHEMBL3425465, “Synthesis, antimalarial and antitubercular activities of meridianin derivatives” (Eur J Med Chem, 2015)
